Measurements published in ChEMBL document CHEMBL1909046, “DrugMatrix in vitro pharmacology data”.

Key:
[1] = biological target: T1, Alpha-1D adrenergic receptor (Homo sapiens, UniProt P25100); format: cell membranes, HEK293, Membrane; conditions: for Ki: read-out: Ki; for all read-outs here: in other assays of this panel Not Active means under 50% inhibition at 10 µM
T1 sequence (P25100 whole entry): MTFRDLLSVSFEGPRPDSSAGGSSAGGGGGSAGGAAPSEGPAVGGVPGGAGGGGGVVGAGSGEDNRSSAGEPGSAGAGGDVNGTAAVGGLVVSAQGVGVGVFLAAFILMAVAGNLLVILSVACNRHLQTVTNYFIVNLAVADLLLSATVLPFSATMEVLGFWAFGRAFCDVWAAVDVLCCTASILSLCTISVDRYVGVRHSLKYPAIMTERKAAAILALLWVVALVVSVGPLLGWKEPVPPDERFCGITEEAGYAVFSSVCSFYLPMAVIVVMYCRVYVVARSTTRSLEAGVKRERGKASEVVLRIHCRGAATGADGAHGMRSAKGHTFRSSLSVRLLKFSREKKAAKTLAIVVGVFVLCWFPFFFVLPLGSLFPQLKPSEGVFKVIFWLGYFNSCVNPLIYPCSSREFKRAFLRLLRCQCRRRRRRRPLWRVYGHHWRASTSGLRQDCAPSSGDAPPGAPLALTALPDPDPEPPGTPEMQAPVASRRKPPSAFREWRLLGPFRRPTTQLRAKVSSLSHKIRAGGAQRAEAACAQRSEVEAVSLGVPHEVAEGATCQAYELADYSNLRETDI

[2] = biological target: T2, 5-hydroxytryptamine receptor 1A (Rattus norvegicus, UniProt P19327); format: cell membranes, CHO-K1, Membrane; note: in other assays of this panel Not Active means under 50% inhibition at 10 µM
T2 sequence (P19327 whole entry): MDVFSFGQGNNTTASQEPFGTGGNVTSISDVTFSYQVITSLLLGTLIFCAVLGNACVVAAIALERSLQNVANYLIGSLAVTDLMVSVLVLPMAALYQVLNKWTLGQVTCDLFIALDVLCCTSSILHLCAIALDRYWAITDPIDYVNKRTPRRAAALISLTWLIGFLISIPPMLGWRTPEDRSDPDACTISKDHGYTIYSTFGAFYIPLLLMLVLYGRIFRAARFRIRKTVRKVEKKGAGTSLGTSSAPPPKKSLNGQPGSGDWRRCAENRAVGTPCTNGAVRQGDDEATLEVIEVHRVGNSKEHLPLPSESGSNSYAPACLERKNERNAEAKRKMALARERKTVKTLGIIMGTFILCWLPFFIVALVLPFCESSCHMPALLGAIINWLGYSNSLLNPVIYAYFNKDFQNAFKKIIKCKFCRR

[3] = biological target: C-C chemokine receptor type 2 (Homo sapiens, UniProt P41597); format: cell membranes, CHO-K1, Membrane; note: in other assays of this panel Not Active means under 50% inhibition at 10 µM
Melanocortin receptor 5 = Melanocortin receptor 5 (Homo sapiens, UniProt P33032); format: cell membranes, HEK293, Membrane; note: in other assays of this panel Not Active means under 50% inhibition at 10 µM
[4] = DRUGMATRIX: Phorbol Ester radioligand binding (ligand: [3H] PDBu); format: cell membranes, Mus musculus, ICR, Brain, Membrane; conditions: Not Active = under 50% inhibition at 10 µM
[5] = DRUGMATRIX: Atrial Natriuretic Factor (ANF) radioligand binding (ligand: [125I] ANF (rat)); format: cell membranes, Cavia porcellus, Dunkin-Hartley, Adrenal gland, Membrane; conditions: Not Active = under 50% inhibition at 10 µM

Sequence of Melanocortin receptor 5 (P33032 whole entry): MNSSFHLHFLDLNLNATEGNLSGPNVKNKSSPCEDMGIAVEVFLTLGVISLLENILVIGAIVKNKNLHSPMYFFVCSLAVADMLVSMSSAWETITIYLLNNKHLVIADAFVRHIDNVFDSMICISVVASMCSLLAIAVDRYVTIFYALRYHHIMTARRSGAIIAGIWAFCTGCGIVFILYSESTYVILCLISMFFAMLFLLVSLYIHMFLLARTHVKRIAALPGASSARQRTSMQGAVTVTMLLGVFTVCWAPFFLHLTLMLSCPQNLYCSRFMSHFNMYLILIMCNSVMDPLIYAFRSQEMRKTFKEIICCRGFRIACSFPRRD
Sequence of C-C chemokine receptor type 2 (P41597 whole entry): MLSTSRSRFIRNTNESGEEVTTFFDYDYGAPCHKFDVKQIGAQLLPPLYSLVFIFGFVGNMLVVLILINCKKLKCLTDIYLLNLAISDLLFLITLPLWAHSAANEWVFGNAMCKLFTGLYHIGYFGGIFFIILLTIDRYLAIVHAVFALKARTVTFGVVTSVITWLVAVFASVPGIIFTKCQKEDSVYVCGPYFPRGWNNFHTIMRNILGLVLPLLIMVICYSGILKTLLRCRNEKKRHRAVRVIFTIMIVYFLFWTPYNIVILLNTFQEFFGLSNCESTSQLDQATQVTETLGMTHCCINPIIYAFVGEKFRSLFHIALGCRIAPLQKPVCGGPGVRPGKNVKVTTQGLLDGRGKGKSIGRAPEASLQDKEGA

| Structure (SMILES) | IC50 ([1]; hek293) | IC50 ([2]; cho-k1) | IC50 ([3]; cho-k1) | IC50 (Melanocortin receptor 5; hek293) | IC50 [4] | Ki [4] | IC50 [5] | Ki [5] | IC50 (Melanocortin receptor 5; read-out: IC50) [nM] | Ki (Melanocortin receptor 5; read-out: Ki) [nM] | IC50 ([3]; read-out: IC50) [nM] | Ki ([3]; read-out: Ki) [nM] | IC50 ([1]; read-out: IC50) [nM] | Ki [1] [nM] | IC50 ([2]; read-out: IC50) [nM] | Ki ([2]; read-out: Ki) [nM] |
| --- | --- | --- | --- | --- | --- | --- | --- | --- | --- | --- | --- | --- | --- | --- | --- | --- |
| CC#C[C@]1(O)CC[C@H]2[C@@H]3CCC4=CC(=O)CCC4=C3[C@@H](c3ccc(N(C)C)cc3)C[C@@]21C [MIFEPRISTONE] | Not Active | Not Active | Not Active | Not Active | Not Active | Not Active | Not Active | Not Active |  |  |  |  |  |  |  |  |
| CC[C@@]1(O)C(=O)OCc2c1cc1n(c2=O)Cc2cc3c(CN(C)C)c(O)ccc3nc2-1 [TOPOTECAN] | Not Active | Not Active | Not Active | Not Active | Not Active | Not Active | Not Active | Not Active |  |  |  |  |  |  |  |  |
| Nc1nc(N)c2nc(-c3ccccc3)c(N)nc2n1 | Not Active | Not Active | Not Active | Not Active | Not Active | Not Active | Not Active | Not Active |  |  |  |  |  |  |  |  |
| Cc1cc2c(s1)Nc1ccccc1N=C2N1CCN(C)CC1 [OLANZAPINE] |  | Not Active | Not Active | Not Active |  |  |  |  |  |  |  |  |  |  |  |  |
| CC[C@H](C)[C@@H](CO[C@@H](Cc1ccccc1)C(=O)N[C@@H](CCS(C)(=O)=O)C(=O)OC(C)C)NC[C@@H](N)CS | Not Active | Not Active | Not Active |  | Not Active | Not Active | Not Active | Not Active | 122 | 114 |  |  |  |  |  |  |
| CO[C@@]12[C@H](COC(N)=O)C3=C(C(=O)C(C)=C(N)C3=O)N1C[C@@H]1N[C@@H]12 [MITOMYCIN] | Not Active | Not Active | Not Active | Not Active | Not Active | Not Active | Not Active | Not Active |  |  |  |  |  |  |  |  |
| CCOC(=O)C1=C(C)NC(C)=C(C(=O)OCC)C1c1ccccc1/C=C/C(=O)OC(C)(C)C [LACIDIPINE] | Not Active | Not Active | Not Active | Not Active | Not Active | Not Active | Not Active | Not Active |  |  |  |  |  |  |  |  |
| Cc1cn([C@H]2C=C[C@@H](CO)O2)c(=O)[nH]c1=O [STAVUDINE] | Not Active | Not Active | Not Active | Not Active | Not Active | Not Active | Not Active | Not Active |  |  |  |  |  |  |  |  |
| C#C[C@]1(O)CC[C@H]2[C@@H]3[C@H](C)CC4=C(CCC(=O)C4)[C@H]3CC[C@@]21C [TIBOLONE] | Not Active | Not Active | Not Active | Not Active | Not Active | Not Active | Not Active | Not Active |  |  |  |  |  |  |  |  |
| CC(O)C(=O)O (stereo unspecified) [LACTIC ACID] | Not Active | Not Active | Not Active | Not Active | Not Active | Not Active | Not Active | Not Active |  |  |  |  |  |  |  |  |
| O=C(O)c1cc(/N=N/c2ccc(S(=O)(=O)Nc3ccccn3)cc2)ccc1O [SULFASALAZINE] | Not Active | Not Active | Not Active | Not Active | Not Active | Not Active | Not Active | Not Active |  |  |  |  |  |  |  |  |
| CCN(CC)C(=S)SSC(=S)N(CC)CC | Not Active | Not Active |  | Not Active | Not Active | Not Active | Not Active | Not Active |  |  | 2470 | 954 |  |  |  |  |
| CNCCCC12CCC(c3ccccc31)c1ccccc12 [MAPROTILINE] |  | Not Active | Not Active | Not Active |  |  |  |  |  |  |  |  | 397 | 195 |  |  |
| Cc1ccc(Cl)c(Nc2ccccc2C(=O)O)c1Cl [MECLOFENAMIC ACID] | Not Active | Not Active | Not Active | Not Active | Not Active | Not Active | Not Active | Not Active |  |  |  |  |  |  |  |  |
| CC(C)(C)NC[C@H](O)COc1cccc2c1CCCC2=O [LEVOBUNOLOL] | Not Active |  | Not Active | Not Active | Not Active | Not Active | Not Active | Not Active |  |  |  |  |  |  | 2900 | 1660 |
| Cc1cccc(C)c1NC(=O)C(C)N (stereo unspecified) [TOCAINIDE] | Not Active | Not Active | Not Active | Not Active | Not Active | Not Active | Not Active | Not Active |  |  |  |  |  |  |  |  |
| CCOc1cc(N)c(Cl)cc1C(=O)NCC1CN(Cc2ccc(F)cc2)CCO1 (stereo unspecified) [MOSAPRIDE] | Not Active | Not Active | Not Active | Not Active | Not Active | Not Active | Not Active | Not Active |  |  |  |  |  |  |  |  |
| Cc1cnc(NC(=O)C2=C(O)c3ccccc3S(=O)(=O)N2C)s1 [MELOXICAM] | Not Active | Not Active | Not Active | Not Active | Not Active | Not Active | Not Active | Not Active |  |  |  |  |  |  |  |  |
| O=C1CC[C@@]2(O)[C@H]3Cc4ccc(O)c5c4[C@@]2(CCN3CC2CC2)[C@H]1O5 [NALTREXONE] | Not Active | Not Active | Not Active | Not Active | Not Active | Not Active | Not Active | Not Active |  |  |  |  |  |  |  |  |
| O=C(c1ccccc1)c1ccc2n1CCC2C(=O)O (stereo unspecified) [KETOROLAC] | Not Active | Not Active | Not Active | Not Active | Not Active | Not Active | Not Active | Not Active |  |  |  |  |  |  |  |  |
| Oc1ccc(/C=C/c2cc(O)cc(O)c2)cc1 [RESVERATROL] | Not Active | Not Active | Not Active | Not Active | Not Active | Not Active | Not Active | Not Active |  |  |  |  |  |  |  |  |
| CN1C(=O)OC(C)(C)C1=O [TRIMETHADIONE] | Not Active | Not Active | Not Active | Not Active | Not Active | Not Active | Not Active | Not Active |  |  |  |  |  |  |  |  |
| Cc1[nH]c(=O)c(C#N)cc1-c1ccncc1 [MILRINONE] | Not Active | Not Active | Not Active | Not Active | Not Active | Not Active | Not Active | Not Active |  |  |  |  |  |  |  |  |
| C[C@]12CCC(=O)C[C@@H]1CC[C@@H]1[C@@H]2CC[C@]2(C)[C@@H](O)CC[C@@H]12 [STANOLONE] | Not Active | Not Active | Not Active | Not Active | Not Active | Not Active | Not Active | Not Active |  |  |  |  |  |  |  |  |
| CCN(CC)CCNC(=O)c1cc(Cl)c(N)cc1OC [METOCLOPRAMIDE] | Not Active | Not Active | Not Active | Not Active | Not Active | Not Active | Not Active | Not Active |  |  |  |  |  |  |  |  |
| CN(C)CCC=C1c2ccccc2COc2ccccc21 [DOXEPIN] |  |  | Not Active | Not Active |  |  |  |  |  |  |  |  | 118 | 58 |  |  |
| COC(=O)Nc1nc2ccc(C(=O)c3ccccc3)cc2[nH]1 [MEBENDAZOLE] | Not Active | Not Active | Not Active | Not Active | Not Active | Not Active | Not Active | Not Active |  |  |  |  |  |  |  |  |
| O=[As][O-].[Na+] [SODIUM ARSENITE] | Not Active | Not Active | Not Active | Not Active | Not Active | Not Active | Not Active | Not Active |  |  |  |  |  |  |  |  |
| CS(=O)(=O)c1ccc(C2=C(c3ccccc3)C(=O)OC2)cc1 [ROFECOXIB] | Not Active | Not Active | Not Active | Not Active | Not Active | Not Active | Not Active | Not Active |  |  |  |  |  |  |  |  |
| CC1(C)[C@H](C(=O)O)N2C(=O)C[C@H]2S1(=O)=O [SULBACTAM] | Not Active | Not Active | Not Active | Not Active | Not Active | Not Active | Not Active | Not Active |  |  |  |  |  |  |  |  |
